In BindingDB's records for doi:10.3109/14756366.2010.482047 (Academy of Sciences of The Czech Republic, 2011):
pKi: −log10 of the molar value.

Molecular target: T1, Cytosol aminopeptidase [33-68,L62W] (Sus scrofa, UniProt P28839, L62W)
T1 construct: 33-68
Experiment: Kinetic Inhibition Assay
Details: pH 8.4; 25 °C
Method: LAP was assayed in 75 mM triethanolamine hydrochloride buffer (pH = 8.4, containing 5 mM MgCl2) at 25°C. The substrate (L-leucine-p-nitroanilide) was dissolved in DMSO and added to the assay buffer followed by the enzyme. The hydrolysis of the substrate was monitored by the change in absorbance measured at 405 nm. All the inhibitor solutions were prepared in the assay buffer. The assay solution, which contained 0.05 mL of the substrate solution (0.2, 0.4, 0.6, 0.8, 1 mM final concentrations), 0.25 mL of an inhibitor solution (concentration dependent on the inhibitor), the enzyme solution (20 μg/ml final concentration) and adjusted to a 1 mL final volume.

T1 sequence (P28839 33-68 L62W): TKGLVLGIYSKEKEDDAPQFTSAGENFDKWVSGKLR

Row | Structure (SMILES) | pKi
1 | CCCC[C@H](N)P(=O)(O)O [1-aminopentylphosphonic acid] | 4.24
2 | CSCC[C@H](N)P(=O)(O)O [Met-P (1)] | 4.65
3 | CSCC[C@H](N)[P@H](=O)O [Met-PH (2)] | 4.66
4 | CSCCC(N)P(=O)(O)CC(C)C(=O)O (configuration not stated) [Met-ψ[P(O)(OH)CH2]-Ala (5)] | 5.44
5 | CCCCC(N)[PH](=O)O (configuration not stated) [Nle-PH (4)] | 4.13
6 | CCCCC(N)P(=O)(O)O[C@@H](C)C(=O)O (stereo partly drawn) [Nle-ψ[P(O)(OH)O]-L-Ala (6)] | 3.57
7 | CCCCC(N)P(=O)(O)O[C@@H](C)C(=O)OC (stereo partly drawn) [Nle-ψ[P(O)(OH)O]-L-AlaOMe (7)] | 3.66
